“And” between values parts separate entries of the source, which are not always exact repeats. Equal values may be shown once.
Key:
Assay type in all cases: cell-based, human
[1] = test system: TIG‐3 embryonic fibroblasts (fetal lung); assay: cell survival (trypan blue exclusion, 5 days), TIG-3; conditions: for IC50: TIG3, cellular survival, 5 days; for Ratio of survived cells (Drugs treated/Untreated), Average / Ratio of survived cells (Drugs treated/Untreated), single passage points #: TIG-3
Description: (§1) Modified procedures of CTOS culture 16 were described elsewhere 10. […] The culture medium was serum‐free advanced DMEM/F‐12 (GIBCO, Waltham, MA) supplemented with FGF‐2 (10 ng/mL, ReproCell, Yokohama, Japan), penicillin ([…], Wako, Osaka, Japan), streptomycin (0.1 mg/mL,Wako), gentamicin (50 μg/mL, Wako), and fungizone (0.25 μg/mL, GIBCO). DLD‐1 and HCT116 CRC cell lines were purchased from JCRB Cell Bank (Osaka, Japan) and RIKEN BioResource Center (Ibaraki, Japan), respectively. In order to estimate pharmacological side effects against normal tissues, human diploid fibroblasts were purchased (JCRB Cell Bank) as model cells. The origins of the fibroblasts were as follows: OUMS‐36 (embryo), TIG‐3 (fetal lung), TIG‐111 (dermal fibroblasts [DFs] from individual), TIG‐119 (DFs from individual), and TIG‐102 (DFs from individual). Adult DFs were purchased from Kurabo (Osaka, Japan). CRC cell lines and fibroblasts were maintained under supplier‐recommended culture conditions. Since the culture conditions are different between fibroblasts and CTOSs, we need to be cautious about the interpretation of data (i.e., lateral comparison between them). […] Colorectal CTOSs display augmented survival through maintaining epithelial structure with E‐cadherin 16. On the other hand, the establishment of conventional cell lines (adherent culture) are much less efficient because constant cell division and autonomous survival are required for the procedure. When we choose CTOSs instead of cancer cell lines, we lose the equivalent condition (adherent culture) as a trade‐off.
(§2) Each drug's half‐maximal inhibitory concentration (IC50) was calculated based on live cell number ratios (drug treated/untreated × 100%) obtained from serial dilution of drug concentration. The length of drug exposure was 5 days. Each number of live cells was counted automatically by trypan blue exclusion (LUNA automated cell counter, Logos Biosystems, Anyang, South Korea). Cancer spheroids were dispersed with serial treatments (20 min each) of TrypLE™ and Accumax™. Thus, IC50 was determined based on cellular survival, but not on proliferation. We chose the survival index instead of the speed of growth because CTOSs in vitro show very slow proliferation (quiescence), which is one of the hallmarks of CSCs 2. The IC50 values of fibroblasts were accordingly determined based on cellular survival index during quiescence (by contact inhibition). […] To quantify the synergism of two distinct drugs, Combination Index (CI) was calculated 21. A CI value of about 1 (0.90–1.10) was defined as nearly additive and CI values more than (>1.10) and less than (<0.90) were defined as antagonism and synergism, respectively. IC50 and CI were determined using CompuSyn software (ComboSyn, Paramus, NK).

[2] = test system: OUMS‐36 embryonic fibroblasts; assay: cell survival (live cell count by trypan blue exclusion, 5 days drug exposure), OUMS-36; conditions: for IC50: OUMS36, cellular survival, 5 days
Description: as §1, §2

[3] = test system: NRF2 target genes in colorectal CTOSs; assay: qRT-PCR of NRF2 and TP53 target genes in colorectal CTOSs
Description: Total RNA was purified using RNAiso Plus (Takara, Osaka, Japan). Reverse transcription was performed using PrimeScript™ with gDNA Eraser (Takara). For quantifying the copy number of each mRNA, we used a StepOne™ Real‐Time PCR System (Applied Biosystems, Waltham, MA) and the Taqman® method. Data were calculated according to the modified delta‐cycle of threshold (ΔCT) method. Normalized Log2 expression was defined as follows: (Log2 expression of a gene of interest) = 30 (arbitrary constant) + (CT of 18S rRNA) − (CT of a gene of interest). We used Log2 parameter for statistical analysis because mRNA expression follows a log‐normal distribution, whereas ΔCT follows normal distribution. A gene‐specific fluorescent probe was designed using a web‐based program (https://qpcr.probefinder.com/organism.jsp). […] Gene‐specific Taqman® probes were purchased from Life Technologies, (Waltham, MA, for Cat#, see Table S1 SpreadSheet2). For PCR, Thunderbird® Probe qPCR mix (Toyobo, Osaka, Japan) was used and the PCR conditions consisted of 40 cycles of two steps (95°C for 15 sec and 60°C for 50 sec).
In order to judge the effect of drug treatments on gene expression, a repeated measures one‐way analysis of variance (ANOVA) was used to determine the variance of Log2 expression from four different groups (untreated, auranofin, CB83, and piperlongumine) using SPSS. Subsequently, the effect of each drug was determined by a paired t test as a post hoc analysis. The P‐values < 0.05 were defined as statistically significant.
In order to estimate NRF2 compensation induced by pharmacological inhibition of TXNRD (auranofin), G6PD (CB83), or GSTπ (piperlongumine), we quantified gene expression of NRF2 target genes. Activation of NRF2 protein was confirmed by NRF2 phosphorylation (Fig. S5A).

[4] = test system: TIG‐111 dermal fibroblasts; assay: cell survival (trypan blue exclusion, 5 days), TIG-111; conditions: for IC50: TIG111, cellular survival, 5 days; for Ratio of survived cells (Drugs treated/Untreated), Average / Ratio of survived cells (Drugs treated/Untreated), single passage points #: TIG-111
Description: as §1, §2

[5] = test system: DF adult dermal fibroblasts; assay: cell survival (trypan blue exclusion, 5 days), DF; conditions: for IC50: cellular survival, 5 days
Description: as §1, §2

[6] = test system: CTOS76 colorectal cancer tissue‐originated spheroids; assay: cell survival (trypan blue exclusion, 5 days), CTOS76; conditions: for IC50: CTOS76, cellular survival, 5 days
Description: All experimental procedures were approved by the animal facility at Dokkyo Medical University (ID: 951) and were described elsewhere 10. The existence of CSCs has been experimentally proven through serial xenotransplantation and tumorigenesis 2, 14. […] These subcutaneous tumors were again subjected to enzymatic dissociation and some of the tumor cells were subcutaneously transplanted into other mice. […] Seven cases (CTOS:40, 42, 68, 71, 76, 86, 88) were used for in vitro experiments.
as §1
Each drug's half‐maximal inhibitory concentration (IC50) was calculated based on live cell number ratios (drug treated/untreated × 100%) obtained from serial dilution of drug concentration. The length of drug exposure was 5 days. Each number of live cells was counted automatically by trypan blue exclusion (LUNA automated cell counter, Logos Biosystems, Anyang, South Korea). Cancer spheroids were dispersed with serial treatments (20 min each) of TrypLE™ and Accumax™. Thus, IC50 was determined based on cellular survival, but not on proliferation.

[7] = higher dose (auranofin 4, CB83 25, piperlongumine 10 μmol/L) for 24 h
[8] = lower dose (auranofin 2, CB83 12.5, piperlongumine 5 μmol/L) for 48 h

## CC[PH](CC)(CC)[Au][S][C@@H]1O[C@H](COC(C)=O)[C@@H](OC(C)=O)[C@H](OC(C)=O)[C@H]1OC(C)=O [Aura, Auranofin]
[1]
  IC50: 1.96 µM
[1]; Aura 1 microM
  Ratio of survived cells (Drugs treated/Untreated), Average: 83.1429%
[1]; Aura 2 microM
  Ratio of survived cells (Drugs treated/Untreated), Average: 61.4286%
[1]; Aura 4 microM
  Ratio of survived cells (Drugs treated/Untreated), Average: 9.571%
[2]
  IC50: 1.79 µM
[2]; OUMS-36, Aura 1 microM
  Ratio of survived cells (Drugs treated/Untreated), Average: 87.8571%
  Ratio of survived cells (Drugs treated/Untreated), single passage points #: 123% and 124% and 66% and 91% and 65% and 77% and 69%
[2]; OUMS-36, Aura 2 microM
  Ratio of survived cells (Drugs treated/Untreated), Average: 39.8571%
[2]; OUMS-36, Aura 4 microM
  Ratio of survived cells (Drugs treated/Untreated), Average: 6%
[3]; [7]
  G6PD mRNA expression change: up‐regulated
  GCLM mRNA expression change: up‐regulated
  TXNRD1 mRNA expression change: up‐regulated
[3]; [8]
  G6PD mRNA expression change: up‐regulated
  GCLC mRNA expression change: up‐regulated
  GCLM mRNA expression change: up‐regulated
  ME1 mRNA expression change: up‐regulated
  TXN mRNA expression change: up‐regulated
  TXNRD1 mRNA expression change: up‐regulated
[4]
  IC50: 1.75 µM
[4]; Aura 1 microM
  Ratio of survived cells (Drugs treated/Untreated), Average: 94.25%
[4]; Aura 2 microM
  Ratio of survived cells (Drugs treated/Untreated), Average: 41.75%
[4]; Aura 4 microM
  Ratio of survived cells (Drugs treated/Untreated), Average: 0%
  Ratio of survived cells (Drugs treated/Untreated), single passage points #: 0%
[5]; Aura 1 microM
  Ratio of survived cells (Drugs treated/Untreated), Average: 88.25%
[5]; Aura 2 microM
  Ratio of survived cells (Drugs treated/Untreated), Average: 33%
  Ratio of survived cells (Drugs treated/Untreated), single passage points #: 38% and 32% and 36% and 26%
[5]; Aura 4 microM
  Ratio of survived cells (Drugs treated/Untreated), Average: 0%
  Ratio of survived cells (Drugs treated/Untreated), single passage points #: 0%
[5]
  IC50: 1.59 µM
[6]
  IC50: 2.83 µM
[6]; CTOS#76, Aura 1 microM
  Ratio of survived cells (Drugs treated/Untreated), Average: 68.4%
[6]; CTOS#76, Aura 2 microM
  Ratio of survived cells (Drugs treated/Untreated), Average: 56.4%
[6]; CTOS#76, Aura 4 microM
  Ratio of survived cells (Drugs treated/Untreated), Average: 39.5%
  Ratio of survived cells (Drugs treated/Untreated), single passage points #: 36% and 56% and 30%

## COc1cc(/C=C/C(=O)N2CCC=CC2=O)cc(OC)c1OC [Pipe, Piperlongumine]
[1]
  IC50: 10.6 µM
[1]; Pipe 2.5 microM
  Ratio of survived cells (Drugs treated/Untreated), Average: 111.833%
  Ratio of survived cells (Drugs treated/Untreated), single passage points #: 107% and 154% and 95% and 81% and 127%
[1]; Pipe 5 microM
  Ratio of survived cells (Drugs treated/Untreated), Average: 79.5%
  Ratio of survived cells (Drugs treated/Untreated), single passage points #: 82% and 60% and 112% and 58% and 92% and 73%
[1]; Pipe 10 microM
  Ratio of survived cells (Drugs treated/Untreated), Average: 64%
[2]
  IC50: 9.36 µM
[2]; OUMS-36, Pipe 2.5 microM
  Ratio of survived cells (Drugs treated/Untreated), Average: 107.667%
[2]; OUMS-36, Pipe 5 microM
  Ratio of survived cells (Drugs treated/Untreated), Average: 84.6667%
[2]; OUMS-36, Pipe 10 microM
  Ratio of survived cells (Drugs treated/Untreated), Average: 49.1667%
[3]; [7]
  G6PD mRNA expression change: up‐regulated
  GCLM mRNA expression change: up‐regulated
  TXNRD1 mRNA expression change: up‐regulated
[3]; [8]
  G6PD mRNA expression change: up‐regulated
  GCLM mRNA expression change: up‐regulated
  TXNRD1 mRNA expression change: up‐regulated
[4]
  IC50: 8.04 µM
[4]; Pipe 2.5 microM
  Ratio of survived cells (Drugs treated/Untreated), Average: 110%
  Ratio of survived cells (Drugs treated/Untreated), single passage points #: 85% and 103% and 123% and 129%
[4]; Pipe 5 microM
  Ratio of survived cells (Drugs treated/Untreated), Average: 95%
  Ratio of survived cells (Drugs treated/Untreated), single passage points #: 69% and 82% and 125% and 104%
[4]; Pipe 10 microM
  Ratio of survived cells (Drugs treated/Untreated), Average: 19.75%
[5]; Pipe 2.5 microM
  Ratio of survived cells (Drugs treated/Untreated), Average: 94.8333%
[5]; Pipe 5 microM
  Ratio of survived cells (Drugs treated/Untreated), Average: 80.3333%
  Ratio of survived cells (Drugs treated/Untreated), single passage points #: 81% and 80% and 83% and 109% and 67% and 62%
[5]; Pipe 10 microM
  Ratio of survived cells (Drugs treated/Untreated), Average: 12.5%
[5]
  IC50: 6.3 µM
[6]
  IC50: 7.15 µM
[6]; CTOS#76, Pipe 2.5 microM
  Ratio of survived cells (Drugs treated/Untreated), Average: 81.75%
[6]; CTOS#76, Pipe 5 microM
  Ratio of survived cells (Drugs treated/Untreated), Average: 73%
[6]; CTOS#76, Pipe 10 microM
  Ratio of survived cells (Drugs treated/Untreated), Average: 32.3333%

Source: article PMC5055185, “Dual pharmacological inhibition of glutathione and thioredoxin systems synergizes to kill colorectal carcinoma stem cells” (Cancer Medicine, 2016)
